Here are results for 14 compounds from US10301263B2, “Anticonvulsant compound” (Royal Holloway and Bedford New College, priority 2014, dated 2019).

One assay concerns the target T1, AMPA receptor GluA1/2 (Homo sapiens, UniProt P42261+P42262).
T1 construct: expressed in transfected cells; host or cells: Xenopus laevis oocytes injected with cRNA
Put plainly: Electrophysiology of Xenopus laevis oocytes expressing GluA1/2. It is filed as cell-based. Conditions: IC50 comparison, FIG. 2C. As to the method: (§1) The AMPA receptor (flip isoform) cDNAs inserted in a SP6 polymerase expression vector (pSP6T) were a generous gift from Prof Ralf Schoepfer (NPP, UCL). RNA was transcribed in vitro from Mlu I linearized transcripts using the SP6 Promega RiboMax RNA synthesis kit (Madison, Wis.) according to manufacturer's protocols except for the addition of 0.75 mM capping nucleotide m7G(5′)ppp(5′)G (Promega, Madison, Wis.) and 1.6 mM GTP. cRNA concentrations and integrity were estimated by the intensity of fluorescence bands in RNA denaturating gels. AMPA receptor cRNAs were mixed in a nominal 1:1 ratio and approximately 5 ng was injected per oocyte.
Xenopus laevis oocytes were purchased from the European Xenopus Resource Centre, University of Portsmouth. Stage V to VI oocytes were mechanically dissected and then subjected to gentle shaking for approximately 30-50 min at room temperature with modified Barth's solution (in mM): NaCl 88, KCl 1, NaHCO3 2.4, MgCl2 0.82, CaCl2 0.77, Tris-Cl 15, adjusted to pH 7.4 with NaOH (Sigma-Aldrich, UK), supplemented with 50 IU/ml penicillin and 50 μg/ml streptomycin (Invitrogen, UK) and 50 μg/ml tetracycline (Sigma-Aldrich, UK) and 1% collagenase (type 1A). […]
The data from the electrophysiology experiments were analyzed using GraphPad Prism software (GraphPad software, San Diego Calif., USA) and SPSS (IBM United Kingdom Limited). […]

The target in another assay is T2, AMPA receptor GluA2/3 (Homo sapiens, UniProt P42262+P42263).
T2 construct: expressed in transfected cells; host or cells: Xenopus laevis oocytes injected with cRNA
Put plainly: Electrophysiology of Xenopus laevis oocytes expressing GluA2/3. The assay is classed as cell-based. The note with it: for inhibition of AMPA receptors (subunit GluA2/3) compared to decanoic acid: dose curve vs decanoic acid; for reduction of AMPA-R generated current in comparison to the control / reduction of AMPA-R generated current in comparison to decanoic acid / reduction of AMPA-R generated current in comparison to 4-BCCA: GluA2/3, 1 mM; for reduction of AMPA-R generated current in comparison to the control: P<0.05 for #175, #177, P<0.001 for the others; for reduction of AMPA-R generated current in comparison to decanoic acid: P<0.01 for #181, #182, #184, P<0.001 for #176, #185; for reduction of AMPA-R generated current in comparison to 4-BCCA: P<0.05 for #181, #184, P<0.01 for #182, P<0.001 for #176, #185. As for the experimental part: as §1
Xenopus laevis oocytes were purchased from the European Xenopus Resource Centre, University of Portsmouth. Stage V to VI oocytes were mechanically dissected and then subjected to gentle shaking for approximately 30-50 min at room temperature with modified Barth's solution (in mM): NaCl 88, KCl 1, NaHCO3 2.4, MgCl2 0.82, CaCl2 0.77, Tris-Cl 15, adjusted to pH 7.4 with NaOH (Sigma-Aldrich, UK), supplemented with 50 IU/ml penicillin and 50 μg/ml streptomycin (Invitrogen, UK) and 50 μg/ml tetracycline (Sigma-Aldrich, UK) and 1% collagenase (type 1A). Healthy oocytes were manually defolliculated and the injections of cRNA for homomeric subunits alone (GluA1), or heteromeric mixtures of two subunits together (GluA2/GluA3) were made using an automated Drummond Nanoinject II injector (Broomall, Pa.). The oocytes were then incubated at 17° C. in modified Barth's solution for at least 48 hours before use in electrophysiological recordings.
Experiments were performed at room temperature (approximately 21-23° C.). An oocyte was placed in a recording chamber (0.3-0.5 ml volume) and perfused with ND96 solution (96 mM NaCl, 2 mM KCl, 1.8 mM CaCl2, 1 mM MgCl2, 5 mM HEPES, with pH adjusted to 7.5). Current and voltage electrodes were filled with 300 mM KCl and made from thin-walled borosilicate glass (GC150TF-7.5, Harvard Apparatus, Kent, UK) using a PC-10 electrode puller (Narashige Instruments, Japan) and had resistances of 0.5-2 MΩ. Oocytes were voltage-clamped to a holding potential of −50 mV or −60 mV using a Turbo TEC-03 amplifier (npi electronics, Tamm, Germany). Compounds were dissolved in distilled water or DMSO and dissolved in bathing solution to achieve their final concentrations during experiments, and were applied under gravity flow during the experiment by using a multi-valve perfusion system (VC3-8C, ALA Scientific Instruments, Farmingdale, N.Y.). The bath solutions were perfused at a rate of 10 ml/min. Recordings were filtered at 20 Hz and digitized at 100 Hz (Digidata 1322A, Molecular Devices, Sunnyvale, Calif.) before recording to computer hard disk. Data acquisition was performed using the Windows PC based programme, WinEDR v3.0.6 (John Dempster, University of Strathclyde, UK).
The data from the electrophysiology experiments were analyzed using GraphPad Prism software (GraphPad software, San Diego Calif., USA) and SPSS (IBM United Kingdom Limited). Statistical analysis was performed using ANOVA with Dunnett's or Tukey post hoc test, pair t-test or un-pair t-test. For the behavior experiment, the nonparametric test, Mann-Whitney test were used. Differences were considered as significant at P<0.05. […]

T2 sequence (P42262 22-883 isoform P42262-2 limits assumed): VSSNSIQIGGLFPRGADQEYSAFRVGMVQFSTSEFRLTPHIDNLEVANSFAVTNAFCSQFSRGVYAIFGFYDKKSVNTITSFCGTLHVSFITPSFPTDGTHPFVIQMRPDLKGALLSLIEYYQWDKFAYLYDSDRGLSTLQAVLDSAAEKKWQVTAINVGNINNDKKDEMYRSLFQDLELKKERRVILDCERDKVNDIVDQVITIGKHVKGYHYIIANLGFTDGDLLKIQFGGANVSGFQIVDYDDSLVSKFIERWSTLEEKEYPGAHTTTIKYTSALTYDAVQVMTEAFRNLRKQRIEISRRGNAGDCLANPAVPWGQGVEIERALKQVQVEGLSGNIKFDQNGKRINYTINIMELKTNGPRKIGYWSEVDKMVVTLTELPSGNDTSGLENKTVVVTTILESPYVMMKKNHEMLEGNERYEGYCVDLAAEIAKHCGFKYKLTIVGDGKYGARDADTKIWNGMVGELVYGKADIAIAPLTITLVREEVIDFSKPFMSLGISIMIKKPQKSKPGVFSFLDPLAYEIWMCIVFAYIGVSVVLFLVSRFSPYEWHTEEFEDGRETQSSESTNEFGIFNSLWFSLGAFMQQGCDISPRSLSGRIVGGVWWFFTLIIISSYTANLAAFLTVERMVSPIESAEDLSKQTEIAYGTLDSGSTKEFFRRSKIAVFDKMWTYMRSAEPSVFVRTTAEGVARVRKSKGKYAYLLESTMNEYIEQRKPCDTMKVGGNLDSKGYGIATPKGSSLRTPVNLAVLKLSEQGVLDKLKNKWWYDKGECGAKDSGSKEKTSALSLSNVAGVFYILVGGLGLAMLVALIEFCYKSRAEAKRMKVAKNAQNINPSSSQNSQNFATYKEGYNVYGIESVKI
T2 sequence (P42263 29-894 isoform P42263-2 limits assumed): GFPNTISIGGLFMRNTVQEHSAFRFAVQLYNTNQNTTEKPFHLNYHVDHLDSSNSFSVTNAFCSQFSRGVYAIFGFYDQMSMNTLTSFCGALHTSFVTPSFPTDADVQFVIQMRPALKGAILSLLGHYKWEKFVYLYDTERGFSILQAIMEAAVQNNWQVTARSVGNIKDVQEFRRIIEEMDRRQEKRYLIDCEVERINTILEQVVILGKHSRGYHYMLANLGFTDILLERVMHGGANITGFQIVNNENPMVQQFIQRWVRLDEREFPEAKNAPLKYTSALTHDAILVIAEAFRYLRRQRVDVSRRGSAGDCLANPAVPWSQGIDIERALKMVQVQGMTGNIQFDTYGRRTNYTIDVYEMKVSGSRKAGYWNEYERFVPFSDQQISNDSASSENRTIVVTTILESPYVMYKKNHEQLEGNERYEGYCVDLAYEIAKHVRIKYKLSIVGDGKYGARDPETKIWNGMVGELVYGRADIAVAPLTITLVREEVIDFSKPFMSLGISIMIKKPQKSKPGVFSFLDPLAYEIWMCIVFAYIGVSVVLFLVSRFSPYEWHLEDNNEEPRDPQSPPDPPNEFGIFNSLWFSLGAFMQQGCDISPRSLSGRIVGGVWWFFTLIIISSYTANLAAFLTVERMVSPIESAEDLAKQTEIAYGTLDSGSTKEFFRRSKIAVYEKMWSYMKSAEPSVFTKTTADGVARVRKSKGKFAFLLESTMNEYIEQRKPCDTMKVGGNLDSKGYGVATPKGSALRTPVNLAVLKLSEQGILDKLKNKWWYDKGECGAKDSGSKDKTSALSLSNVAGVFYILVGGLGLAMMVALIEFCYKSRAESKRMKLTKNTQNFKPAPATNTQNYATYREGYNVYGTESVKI
T1 sequence (P42261 19-906 isoform P42261-2 limits assumed): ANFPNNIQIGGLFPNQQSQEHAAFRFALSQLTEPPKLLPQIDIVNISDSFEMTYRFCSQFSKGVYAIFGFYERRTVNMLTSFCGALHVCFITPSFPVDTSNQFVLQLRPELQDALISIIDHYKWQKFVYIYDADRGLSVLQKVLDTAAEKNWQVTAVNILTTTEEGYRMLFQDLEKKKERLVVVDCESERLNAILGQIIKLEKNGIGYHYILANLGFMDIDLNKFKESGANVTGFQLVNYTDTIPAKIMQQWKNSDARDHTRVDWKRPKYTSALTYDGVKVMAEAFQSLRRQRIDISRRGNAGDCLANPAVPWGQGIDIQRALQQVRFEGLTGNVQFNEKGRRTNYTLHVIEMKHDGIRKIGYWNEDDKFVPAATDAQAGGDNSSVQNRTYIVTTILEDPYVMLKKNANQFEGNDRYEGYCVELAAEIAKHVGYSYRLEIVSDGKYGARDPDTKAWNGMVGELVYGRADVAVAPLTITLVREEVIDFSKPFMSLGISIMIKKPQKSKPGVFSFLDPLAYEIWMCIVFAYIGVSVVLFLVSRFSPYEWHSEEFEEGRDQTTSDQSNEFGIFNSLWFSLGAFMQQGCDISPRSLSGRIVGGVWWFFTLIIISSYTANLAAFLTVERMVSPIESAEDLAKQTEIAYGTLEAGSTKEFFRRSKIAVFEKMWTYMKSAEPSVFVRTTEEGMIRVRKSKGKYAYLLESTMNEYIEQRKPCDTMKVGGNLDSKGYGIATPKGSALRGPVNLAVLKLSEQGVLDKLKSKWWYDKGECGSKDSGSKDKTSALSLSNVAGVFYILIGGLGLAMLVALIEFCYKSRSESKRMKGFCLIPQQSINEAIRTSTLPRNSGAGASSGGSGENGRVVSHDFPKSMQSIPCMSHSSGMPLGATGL
T1 sequence (P42262 22-883 isoform P42262-2 limits assumed): as the sequence (P42262 22-883 isoform P42262-2 limits assumed) above

As for `CCCCCC1CCC(CC(=O)O)CC1` (racemic) [Compound 4-PCEA, 2-(4-pentylcyclohexyl)ethanoic acid], the “inhibitory effect on AMPA receptors consisting of GluA1/2 subunits compared to decanoic acid” value against AMPA receptor GluA1/2 is “enhanced inhibitory effect”. Further, the “inhibition of AMPA receptors (subunit GluA2/3) compared to decanoic acid” value against AMPA receptor GluA2/3 was “more potent inhibition”.
For `CCCOCC1CCC(CC(=O)O)CC1` (stereo not shown) [compound 175, 4-(propoxymethyl)cyclohexyl acetic acid], the “reduction of AMPA-R generated current in comparison to the control” value (shortened to “reduction … to the control”) on AMPA receptor GluA2/3 is reported as “significant reduction”.
Same read-out and setting: as for `CCCOC1CCC(C(=O)O)CC1` (stereo not shown) [compound 180, 4-propoxycyclohexanecarboxylic acid], the entry is “significant reduction”.
`CCC(C)CC1CCC(C(=O)O)CC1` (stereo not shown) [compound 184, 4-(2-methylbutyl)cyclohexanecarboxylic acid]: on AMPA receptor GluA2/3, the “reduction of AMPA-R generated current in comparison to decanoic acid” value (“reduction … to decanoic acid” for short) was “significant reduction”, the “reduction … to the control” value is listed as “significant reduction” and the “reduction of AMPA-R generated current in comparison to 4-BCCA” value (shortened to “reduction … to 4-BCCA”) is reported as “significant reduction”.
For the compound `CC(C)CCCC1CCC(CC(=O)O)CC1` (stereo not shown) [compound 172, [4-(4-methylpentyl)cyclohexyl]acetic acid], the “reduction … to the control” value on AMPA receptor GluA2/3 is on record as “significant reduction”.
For `CC(C)CCC1CCC(C(=O)O)CC1` (stereo not shown) [compound 181, 4-(3-methylbutyl)cyclohexanecarboxylic acid], at AMPA receptor GluA2/3, the “reduction … to decanoic acid” value is “significant reduction”, the “reduction … to the control” value was “significant reduction” and the “reduction … to 4-BCCA” value is “significant reduction”.
Consider `CCC(C)CCC1CCC(CC(=O)O)CC1` (stereo not shown) [compound 176, [4-(3-methylpentyl)cyclohexyl]acetic acid], for which, on AMPA receptor GluA2/3, the “reduction … to decanoic acid” value is listed as “significant reduction”, the “reduction … to the control” value is reported as “significant reduction” and the “reduction … to 4-BCCA” value is “significant reduction”.
With `CCCCC1CCC(C(=O)O)NC1` (stereo not shown) [compound 178, 5-butylpiperidine-2-carboxylic acid], at AMPA receptor GluA2/3, the “reduction … to the control” value is “significant reduction”.
Take `CCCCC=C1CCC(CC(=O)O)CC1` (stereo not shown) [compound 182, (4-pentylidenecyclohexyl)acetic acid]: on AMPA receptor GluA2/3, the “reduction … to decanoic acid” value is recorded as “significant reduction”, the “reduction … to the control” value is “significant reduction” and the “reduction … to 4-BCCA” value is reported as “significant reduction”.
On to `CCCCCc1ccc(CC(=O)O)cc1` [Compound 4-PPEA, 4-pentylphenylethanoic acid], for which the “inhibition of AMPA receptors (subunit GluA2/3) compared to decanoic acid” value against AMPA receptor GluA2/3 is “more potent inhibition”.
With `CCOCC1CCC(C(=O)O)CC1` (stereo not shown) [compound 177, 4-(ethoxymethyl)cyclohexancarboxylic acid], the “reduction … to the control” value on AMPA receptor GluA2/3 is “significant reduction”.
Consider `CCCC(C)CC1CCC(CC(=O)O)CC1` (stereo not shown) [compound 185, [4-(2-methylpentyl)cyclohexyl]acetic acid], for which, at AMPA receptor GluA2/3, the “reduction … to decanoic acid” value is reported as “significant reduction”, the “reduction … to the control” value was “significant reduction” and the “reduction … to 4-BCCA” value is recorded as “significant reduction”.
For `CC/C=C/C1CCC(C(=O)O)CC1` (stereo not shown) [compound 174, 4-[(1E)-but-1-en-1-yl]cyclohexanecarboxylic acid], the “reduction … to the control” value on AMPA receptor GluA2/3 was “significant reduction”.
Same read-out and setting: as for `CCNCC1CCC(CC(=O)O)CC1` (stereo not shown) [compound 179, {4-[(ethylamino)methyl]cyclohexyl}acetic acid], the entry is “significant reduction”.
